Measured values published in patent US9108983B2, “Pyrrole compounds, a process for their preparation and pharmaceutical compositions containing them” (LES LABORATOIRES SERVIER, priority 2013, dated 2015).
Where a name gives a salt, the structure may show the parent alone. Read-outs that look alike come from different tables or passages of the source.

Tests used:
[1] = target: Bcl-2 protein (histag-Bcl-2, UniProtKB P10415) (Homo sapiens (Human), UniProt P10415); assay: Inhibition of Bcl-2 by the fluorescence polarisation technique; assay type: binding; details: incubation for 2 hours, read-out: IC50 (nM) Bcl-2 FP
Chain of Bcl-2 protein (P10415 whole entry): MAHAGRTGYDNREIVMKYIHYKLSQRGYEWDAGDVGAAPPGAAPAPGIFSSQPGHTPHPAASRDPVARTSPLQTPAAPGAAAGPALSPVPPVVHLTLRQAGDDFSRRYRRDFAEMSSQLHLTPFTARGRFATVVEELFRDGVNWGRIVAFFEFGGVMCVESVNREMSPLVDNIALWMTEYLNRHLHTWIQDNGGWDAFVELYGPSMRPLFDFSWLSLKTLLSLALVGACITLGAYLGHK
In short: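 In pH 7.4 buffer (Hepes 10 mM, NaCl 150 mM, Tween20 0.05%), test compounds at increasing concentrations competed with a fluorescein peptide (1.00×10^−8 M final) for histag-Bcl-2 (2.50×10^−8 M final). Readout was fluorescence polarisation after a 2 h incubation.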

[2] = system: RS4;11 leukaemia tumour line; assay: In vitro cytotoxicity (Microculture Tetrazolium Assay); assay type: cell-based; details: RS4;11 cells, exposed for 48 hours, cell viability, read-out: IC50 (nM) MTT RS4;11
Experimental: The cytotoxicity studies were carried out on the RS4;11 leukaemia tumour line.
The cells are distributed onto microplates and exposed to the test compounds for 48 hours.
The cell viability is then quantified by a colorimetric assay, the Microculture Tetrazolium Assay (Cancer Res., 1987, 47, 939-942).

Row | Compound | IC50 [1] [nM] | IC50 [2] [nM] | IC50 ([2]; Homo sapiens, RS4-11, 48 h) [nM]
1 | Cc1c(C(=O)N(c2ccncc2)c2ccc(O)cc2)cc(-c2cc3c(cc2C(=O)N2Cc4ccccc4C[C@H]2CN2CCN(C)CC2)OCO3)n1C [Example 70, N-(4-Hydroxyphenyl)-1,2-dimethy-5-(6-{[(3S)-3-[(4-methylpiperazin-1-yl)methyl]-3,4-dihydroisoquinolin-2(1H)-yl]carbonyl}4,3-benodioxol-5-yl)-N-(pyridin-4-yl)-1H-pyrrole-3-carboxamide hydrochloride] | 8.5 | 63.5 | –
2 | Cc1c(C(=O)N(c2ccc(O)cc2)c2cnn(C)c2)cc(-c2cc(Cl)ccc2C(=O)N2Cc3ccccc3C[C@H]2C)n1C [Example 1, 5-(5-Chloro-2-{[(3R)-3-methyl-3,4-dihydroisoquinolin-2(1H)-yl]carbonyl}phenyl)-N-(4-hydroxyphenyl)-1,2-dimethyl-N-(1-methyl-1H-pyrazol-4-yl)-1H-pyrrole-3-carboxamide] | 5 | – | 33.6
3 | COc1cc(C(=O)N2Cc3ccccc3C[C@H]2CN2CCOCC2)c(-c2cc(C(=O)N(c3ccc(O)cc3)c3cc(C#N)ccn3)c(C)n2C)cc1F [Example 435, N-(4-Cyanopyridin-2-yl)-5-(5-fluoro-4-methoxy-2-{[(3S)-3-(morpholin-4-ylmethyl)-3,4-dihydroisoquinolin-2(1H)-yl]carbonyl}phenyl)-N-(4-hydroxyphenyl)-1,2-dimethyl-1H-pyrrole-3-carboxamide hydrochloride] | 14.9 | – | 441
4 | Cc1c(C(=O)N(c2ccc(O)cc2)c2cnc3c(cnn3C)c2)cc(-c2cc(F)ccc2C(=O)N2Cc3ccccc3C[C@H]2CN2CCOCC2)n1C [Example 451, 5-(5-Fluoro-2-{[(3S)-3-(morpholin-4-ylmethyl)-3,4-dihydroisoquinolin-2(1H)-yl]carbonyl}phenyl)-N-(4-hydroxyphenyl)-1,2-dimethyl-N-(1-methyl-1H-pyrazolo[3,4-b]pyridin-5-yl)-1H-pyrrole-3-carboxamide hydrochloride] | 2.9 | – | 102
5 | COc1ccc(C(=O)N2Cc3ccccc3C[C@H]2CN2CCOCC2)c(-c2cc(C(=O)N(c3ccc(O)cc3)c3cnn(C)c3)c(C)n2C)c1 [Example 24, N-(4-Hydroxyphenyl)-5-(5-methoxy-2-{[(3S)-3-(morpholin-4-ylmethyl)-3,4-dihydroisoquinolin-2(1H)-yl]carbonyl}phenyl)-1,2-dimethyl-N-(1-methyl-1H-pyrazol-4-yl)-1H-pyrrole-3-carboxamide hydrochloride] | 6.2 | – | 79.1
6 | Cc1c(C(=O)N(c2ccncc2)c2ccc(O)cc2)cc(-c2cc(Cl)ccc2C(=O)N2Cc3ccccc3C[C@H]2C)n1C [Example 28, 5-(5-Chloro-2-{[(3R)-3-methyl-3,4-dihydroisoquinolin-2(1H)-yl]carbonyl}phenyl)-N-(4-hydroxyphenyl)-1,2-dimethyl-N-(pyridin-4-yl)-1H-pyrrole-3-carboxamide hydrochloride] | 7.5 | – | 95.3
7 | Cc1c(N(C(=O)c2cc(-c3cc(Cl)ccc3C(=O)N3Cc4ccccc4C[C@H]3CCCN3CCOCC3)n(C)c2C)c2ccccc2)cc(C#N)n1C [Example 461, 5-(5-Chloro-2-{[(3R)-3-[3-(morpholin-4-yl)propyl]-3,4-dihydroisoquinolin-2(1H)-yl]carbonyl}phenyl)-N-(5-cyano-1,2-dimethyl-1H-pyrrol-3-yl)-1,2-dimethyl-N-phenyl-1H-pyrrole-3-carboxamide hydrochloride] | 3.1 | – | 18.6
8 | Cc1c(C(=O)N(c2ccc(O)cc2)c2cccc(F)c2)cc(-c2cc(Cl)ccc2C(=O)N2Cc3ccccc3C[C@H]2CN2CCOCC2)n1C [Example 34, 5-(5-Chloro-2-{[(3S)-3-(morpholin-4-ylmethyl)-3,4-dihydroisoquinolin-2(1H)-yl]carbonyl}phenyl)-N-(3-fluorophenyl)-N-(4-hydroxyphenyl)-1,2-dimethyl-1H-pyrrole-3-carboxamide hydrochloride] | 8.2 | – | 47
9 | COc1cc(-c2cc(C(=O)N(c3ccc(O)cc3)c3cnn(C)c3)c(C)n2C)c(C(=O)N2Cc3ccccc3C[C@H]2CN2CCOCC2)cc1F [Example 101, 5-(4-Fluoro-5-methoxy-2-{[(3S)-3-(morpholin-4-ylmethyl)-3,4-dihydroisoquinolin-2(1H)-yl]carbonyl}phenyl)-N-(4-hydroxyphenyl)-1,2-dimethyl-N-(1-methyl-1H-pyrazol-4-yl)-1H-pyrrole-3-carboxamide hydrochloride] | 21.1 | – | 743
10 | Cc1c(C(=O)N(c2ccc(O)cc2)c2cnn(C)c2)cc(-c2cc3c(cc2C(=O)N2Cc4ccccc4C[C@H]2C)OCO3)n1C [Example 39, N-(4-Hydroxyphenyl)-1,2-dimethyl-5-(6-{[(3R)-3-methyl-3,4-dihydroisoquinolin-2(1H)-yl]carbonyl}-1,3-benzodioxol-5-yl)-N-(1-methyl-1H-pyrazol-4-yl)-1H-pyrrole-3-carboxamide] | 7.2 | – | 19.7
11 | Cc1c(C(=O)N(c2ccc(O)cc2)c2cnn(C3CC3)c2)cc(-c2cc(Cl)ccc2C(=O)N2Cc3ccccc3C[C@H]2CN2CCOCC2)n1C [Example 122, 5-(5-Chloro-2-{[(3S)-3-(morpholin-4-ylmethyl)-3,4-dihydroisoquinolin-2(1H)-yl]carbonyl}phenyl)-N-(1-cyclopropyl-1H-pyrazol-4-yl)-N-(4-hydroxyphenyl)-1,2-dimethyl-1H-pyrrole-3-carboxamide] | 3.4 | – | 82.4
12 | Cc1c(C(=O)N(c2ccc(O)cc2)c2cccc(F)c2)cc(-c2cc3c(cc2C(=O)N2Cc4ccccc4C[C@H]2C)OCO3)n1C [Example 41, N-(3-Fluorophenyl)-N-(4-hydroxyphenyl)-1,2-dimethyl-5-(6-{[(3R)-3-methyl-3,4-dihydroisoquinolin-2(1H)-yl]carbonyl}-1,3-benzodioxol-5-yl)-1H-pyrrole-3-carboxamide] | 10 | – | 22.6
13 | COc1cc(-c2cc(C(=O)N(c3ccc(O)cc3)c3cc(C#N)n(C)c3C)c(C)n2C)c(C(=O)N2Cc3ccccc3C[C@H]2CN2CCOCC2)cc1F [Example 429, N-(5-Cyano-1,2-dimethyl-1H-pyrrol-3-yl)-5-(4-fluoro-5-methoxy-2-{[(3S)-3-(morpholin-4-ylmethyl)-3,4-dihydroisoquinolin-2(1H)-yl]carbonyl}phenyl)-N-(4-hydroxyphenyl)-1,2-dimethyl-1H-pyrrole-3-carboxamide hydrochloride] | 3.1 | – | 109
14 | 5-(5-Fluoro-4-methoxy-2-{[(3S)-3-(morpholin-4-ylmethyl)-3,4-dihydroisoquinolin-2(1H)-yl]carbonyl}phenyl)-N-(4-hydroxyphenyl)-1,2-dimethyl-N-(1-methyl-2,3-dihydro-1H-pyrrolo[2,3-b]pyridin-5-yl)-1H-pyrrole-3-carboxamide hydrochloride [Example 210] | 8.8 | 47.2 | –
15 | Cc1c(C(=O)N(c2ccc(O)cc2)c2csc(C#N)c2)cc(-c2cc(Cl)ccc2C(=O)N2Cc3ccccc3C[C@H]2CN2CCOCC2)n1C [Example 442, 5-(5-Chloro-2-{[(3S)-3-(morpholin-4-ylmethyl)-3,4-dihydroisoquinolin-2(1H)-yl]carbonyl}phenyl)-N-(5-cyanothiophen-3-yl)-N-(4-hydroxyphenyl)-1,2-dimethyl-1H-pyrrole-3-carboxamide hydrochloride] | 3 | – | 42.8
16 | Cn1cc(N(C(=O)c2cc(-c3cc4c(cc3C(=O)N3Cc5ccccc5C[C@H]3CN3CCOCC3)OCO4)n(C)c2C(F)(F)F)c2ccc(O)cc2)cn1 [Example 75, N-(4-Hydroxyphenyl)-1-methyl-N-(1-methyl-4H-pyrazol-4-yl)-5-(6-{[(3S)-3-(morpholin-4-ylmethyl)-3,4-dihydroisoquinolin-2(1TH-yl]carbonyl}-1,3-benzodioxol-5-yl)-2-(trifluoromethyl)-1H-pyrrole-3-carboxamide hydrochloride] | 52.9 | 367 | –
17 | CCNC(=O)NCc1ccc(C(=O)N2Cc3ccccc3C[C@H]2C)c(-c2cc(C(=O)N(C)c3ccc(O)cc3)c(C)n2C)c1 [Example 52, 5-(5-{[(Ethylcarbamoyl)amino]methyl}-2-{[(3R)-3-methyl-3,4-dihydroisoquinolin-2(1H)-yl]carbonyl}phenyl)-N-(4-hydroxyphenyl)-N,1,2-trimethyl-1H-pyrrole-3-carboxamide] | 28.9 | – | 433
18 | CC1=C(C(=O)N(c2ccccc2)c2ccc(O)cc2)CC(c2cc(Cl)ccc2C(=O)N2Cc3ccccc3C[C@H]2COCCN2CCOCC2)N1C (stereo partly drawn) [Example 29, 5-(5-Chloro-2-{[(3S)-3-{[2-(morpholin-4-yl)ethoxy]methyl}-3,4-dihydroisoquinolin-2(1H)-yl]carbonyl}phenyl)-N-(4-hydroxyphenyl)-1,2-dimethyl-N-phenyl-4H-pyrrole-3-carboxamide hydrochloride] | 6.6 | – | 47.5
19 | Cc1c(C(=O)N(c2ccccc2)c2ccc(O)cc2)cc(-c2cc3c(cc2C(=O)N2Cc4ccccc4C[C@H]2CN2CCOCC2)OCO3)n1C [Example 15, N-(4-Hydroxyphenyl)-1,2-dimethyl-5-(6-{[(3S)-3-(morpholin-4-ylmethyl)-3,4-dihydroisoquinoin-2(1H)-yl]carbny}-1,3-benzodioxo-5-yl)-N-pheny-1H-pyrrole-3-carboxamide hydrochloride] | 11.1 | 69.4 | –
